Experimental data published in US4916231A, “Alkenyltetrazole derivatives” (Shionogi & Co., Ltd., priority 1988, dated 1990).
Counter-ions that a name gives are not always drawn. Like-named read-outs stand apart in the source and are kept apart here.

Experiments:
Rats Washed Platelet = assay: in vitro rat washed platelet aggregation test (collagen-induced); assay type: cell-based, rat (Sprague-Dowley); details: 0.05 h, inducer collagen 4 μg/ml, 37° C., 3 minutes after inducer, read-out: 50% Inhibitory Concentration (IC50), Inhibition of Aggregation for Rats Washed Platelet
Experimental: From the abdominal artery of a male rat (Sprague-Dowley, 8 weeks old) was collected 10 ml of blood with a syringe containing 1.5 ml of ACD (85 mM of sodium citrate, 70 mM of citric acid, 110 mM of glucose) and 20 μg of prostaglandin E1. The blood is placed in a plastic test tube, shaken moderately turning and centrifuged for 10 minutes at 160×g to give platelet rich plasma (PRP). To the prepared PRP was added apyrase (25 μg/ml) and the mixture was layered on 40% bovine serum albumin. The resulting mixture is centrifuged at 1200×g for 25 minutes.
The platelet aggregation reaction was measured by an aggregometer (NKK HEMA TRACER 1 MODEL PAT-6A.6M, Niko bioscience). In a measuring cuvette was placed 245 μl of the washed platelet of which platelet number was adjusted to 5×10^5 /μl and set in the aggregometer. The washed platelet was stirred (1000 rpm) at 37° C. and 3.8 µl of 0.1M of CaCl2 was added thereto. One minute later, 0.5 µl of a solution of a test compound in dimethylsulfoxide was added and 2 minutes later, 1 µl of collagen (Collagen reagent Horm®, HORMON-CHEMIE Munchen GMBH, final concentrate 4 μg/ml) as an inducer for platelet aggregating was added. The platelet aggregation was monitored with an aggregometer in terms of the increase and decrease in transmittancy.

Guinea Pig Platelet = assay: Long Acting Inhibitory effect for Guinea Pig Platelet Aggregation (ex vivo), arachidonic acid-induced; assay type: in vivo, guinea pig (Slc- Hartley); details: for AA (100 μM)-Induced Platelet Aggregation (%): 0.5 mg/kg, mean ± S.E., 5 guinea pigs
Experimental: A solution of test compound in physiological saline was administered (dosage: 0.5 mg/kg, dosage volume: 2 ml/Kg) to a guinea pig (Slc- Hartley, male, 9 weeks old, weight 520 to 590 g).
Inhibitory effect for platelet aggregation was measured in 1, 3, and 6 hours after administration of the test compounds.
Under sodium pentobarbital anesthesia, blood was collected from the abdominal artery in such the ratio that 3.8% sodium citrate solution/blood was 1 volume/9 volume.
The blood centrifuged for 15 minutes at 180×g at 22° C. to give platelet rich plasma (PRP). The remaining blood was further centrifuged at 3,000 rpm for 10 minutes at 22° C. to give platelet-poor plasma (PPP).
The platelet aggregation test was performed according to Born's method [Born, G.V.R., Nature, 194, 927-929 (1962)], using an aggregometer (model AUTO RAM-61, Rika Denki Kogyo CO., Ltd.). 400 µl of PRP, whose platelets number was prepared to count 50-55×10^4 /μl, was placed in a measuring cuvette and set in the aggregometer. PRP was stirred for 1 minute (at 1,200 rpm) at 37° C. and preliminarily warmed. As an inducer for platelet aggregating, 100 µl of arachidonic acid (sodium salt, Sigma) was added and the platelet aggregation was monitored with an aggregometer in terms of the increase and decrease in light transmission.
Setting the light transmittance for PRP at 0% of platelet aggregating rate, and that for PPP at 100%, the maximum light transmittance for the sample, after the addition of the inducer for platelet aggregating, was regarded as the maximum platelet aggragation rate.
The inhibitory rate for aggregation (%) was calculated from the ratio of the maximum aggregation rate in the test-compound-added group to that in the control group (carrier-added group).

[1] = system: sodium arachidonate-induced pulmonary thromboembolic death in mice; assay: Protective effects on sodium arachidonate-induced pulmonary thromboembolic death in mice; assay type: in vivo, mice (DDY); details: for ED50: Mus musculus, iv, 1 h, into tail vein, mortality at 1 hour, read-out: ED50 (95% confidence limit)
Experimental: The mice (DDY, 4 weeks old, male, weight 20 to 25 g) in a group of ten are used.
Pulmonary thromboembolic death was induced by injecting 99% solution of sodium arachidonate (Sigma) in physiological saline [100 mg/kg (100% pulmonary thromboembolic death was induced in this amount.)] into tail vein. In order to examine the duration time of the test compound, sodium arachidonate was administrated in 15 minutes and 60 minutes after an administration of a solution of the test compounds in physioligical saline into tail vein. The mortality at 1 hour was determined and ED50 was calculated by probit method.

Row | SMILES | IC50 (Rats Washed Platelet) [nM] | also measured
1 | COc1ccc(S(=O)(=O)N[C@@H]2[C@@H](C/C=C\CCCc3nnn[nH]3)C[C@H]3C[C@@H]2C3(C)C)cc1 [Iee-b, (1R,2R,3S,5S)-2-[(4-methoxyphenyl)sulfonylamino]-3-[(2Z)-6-(5-tetrazolyl)hex-2-enyl]-6,6-dimethylbicyclo [3.1.1]heptane] | 5 | 
2 | COc1ccc(S(=O)(=O)N[C@H]2[C@H]3CC[C@H](C3)[C@@H]2C/C=C\CCCc2nnn[nH]2)cc1 (relative stereo) [Iae-b, (1R*,2S*,3S*,4S*)-3-(4-methoxyphenylsulfonylamino)-2-[(2Z)-6-(5-tetrazolyl)hex-2-enyl]bicyclo[2.2.1]heptane] | 2 | 
3 | CC1(C)[C@H]2C[C@H](C/C=C\CCCc3nnn[nH]3)[C@@H](NS(=O)(=O)c3ccc(Cl)cc3)[C@@H]1C2 [Iej-b, (1R,2R,3S,5S)-2-[(4-chlorophenyl)sulfonylamino]-3-[(2Z)-6-(5-tetrazolyl)hex-2-enyl]-6,6-dimethylbicyclo [3.1.1]heptane] | 7 | 
4 | O=S(=O)(N[C@H]1[C@H]2CC[C@H](C2)[C@@H]1C/C=C\CCCc1nnn[nH]1)c1ccccc1 (relative stereo) [Iaa-b, (1R*,2S*,3S*,4S*)-3-phenylsulfonylamino-2-[(2Z)-6-(5-tetrazolyl)hex-2-enyl]bicyclo[2.2.1]heptane] | 3 | AA (100 μM)-Induced Platelet Aggregation (%) (Guinea Pig Platelet; 0 hours after p.o. administration): 89.7 ± 1.4%; inhibition of arachidonic acid induced platelet aggregation (Guinea Pig Platelet; 1 and 3 hours after administration): significantly inhibited; AA (100 μM)-Induced Platelet Aggregation (%) (Guinea Pig Platelet; 1 hour after p.o. administration, * p < 0.05): 2.5 ± 2.0%; AA (100 μM)-Induced Platelet Aggregation (%) (Guinea Pig Platelet; 3 hours after p.o. administration, * p < 0.05): 19.0 ± 18.0%; inhibition of arachidonic acid induced platelet aggregation (Guinea Pig Platelet; 6 hours after administration): still observed; AA (100 μM)-Induced Platelet Aggregation (%) (Guinea Pig Platelet; 6 hours after p.o. administration): 56.3 ± 20.4%; duration of action (Guinea Pig Platelet; conclusion of ex vivo test): long acting; inhibitory potency, 15 vs 60 minutes pretreatment ([1]; 15 minutes and 60 minutes pretreatment): did not show significantly different inhibitory potency; inhibitory effect of 60 minutes pretreatment ([1]; 60 minutes pretreatment): rather stronger inhibitory effect; ED50 ([1]; pretreatment 15 min): 1.8 mg/kg; ED50 ([1]; pretreatment 60 min): 1.5 mg/kg; duration of action ([1]; conclusion of mouse test): long-acting
5 | Cc1ccc(S(=O)(=O)N[C@@H]2[C@@H](C/C=C\CCCc3nnn[nH]3)C[C@H]3C[C@@H]2C3(C)C)cc1 [Ieb-b, (1R,2R,3S,5S)-2-(p-tolylsulfonylamino)-3-[(2Z)-6-(5-tetrazolyl)hex-2-enyl]-6,6-dimethylbicyclo[3.1.1]-heptane] | 4 | 
6 | O=S(=O)(N[C@H]1[C@H]2CC[C@H](C2)[C@@H]1C/C=C\CCCc1nnn[nH]1)c1ccc(O)cc1 (relative stereo) [Iad-b, (1R*,2S*,3S*,4S*)-3-(4-hydroxyphenylsulfonylamino)-2-[(2Z)-6-(5-tetrazolyl)hex-2-enyl]bicyclo[2.2.1]heptane] | 2 | 
7 | CC1(C)[C@H]2C[C@H](C/C=C\CCCc3nnn[nH]3)[C@@H](NS(=O)(=O)c3ccc4ccccc4c3)[C@@H]1C2 [Iei-b, (1R,2R,3S,5S)-2-[(2-naphthyl)sulfonylamino]-3-[(2Z)-6-(5-tetrazolyl)hex-2-enyl]-6,6-dimethylbicyclo[3.1.1]-heptane] | 9 | 
8 | O=S(=O)(N[C@H]1[C@H]2CC[C@H](C2)[C@@H]1C/C=C\CCCc1nnn[nH]1)c1ccccc1 [(+)-Iaa-b, (1R,2S,3S,4S)-3-phenylsulfonylamino-2-[(2Z)-6-(5-tetrazolyl)hex-2-enyl]bicyclo[2.2.1]heptane] | 2 | 

Now from value to molecule, other results behind:

Row | IC50 (Rats Washed Platelet) [nM] | SMILES | also measured
9 | 3 | CC1(C)[C@H]2C[C@H](NS(=O)(=O)c3ccccc3)[C@@H](C/C=C\CCCc3nn[nH]n3)[C@@H]1C2 [Ida-b] | 
10 | 10 | O=S(=O)(N[C@H]1[C@H](C/C=C\CCCc2nnn[nH]2)[C@H]2CC[C@@H]1O2)c1ccccc1 (relative stereo) [Ica-b, (1R*,2S*,3S*,4S*)-3-phenylsulfonylamino-2-[(2Z)-6-(5-tetrazolyl)hex-2-enyl]-7-oxabicyclo[2.2.1]heptane] | 
11 | 2 | O=S(=O)(N[C@H]1[C@H]2CC[C@H](C2)[C@@H]1C/C=C\CCCc1nn[nH]n1)c1ccc(Br)cc1 (relative stereo) [Iac-b, (1R*,2S*,3S*,4S*)-3-(4-bromophenylsulfonylamino-2-[(2Z)-6-(5-tetrazolyl)hex-2-enyl]bicyclo[2.2.1]heptane] | 
12 | 5 | CC1(C)[C@H]2C[C@H](C/C=C\CCCc3nnn[nH]3)[C@@H](NS(=O)(=O)c3cccc(Cl)c3)[C@@H]1C2 [Iek-b, (1R,2R,3S,5S)-2-[(3-chlorophenyl)sulfonylamino]-3-[(2Z)-6-(5-tetrazolyl)hex-2-enyl]-6,6-dimethyl-bicyclo [3.1.1]heptane] | 
13 | 2 | CC1(C)[C@H]2C[C@H](C/C=C\CCCc3nnn[nH]3)[C@@H](NS(=O)(=O)c3ccc(Br)cc3)[C@@H]1C2 [Iec-b, (1R,2R,3S,5S)-2-[(4-bromophenyl)sulfonylamino]-3-[(2Z)-6-(5-tetrazolyl)hex-2-enyl]-6,6-dimethylbicyclo[3.1.1]heptane] | 
14 | 20 | CC1(C)[C@H]2C[C@H](C/C=C\CCCc3nnn[nH]3)[C@@H](NS(=O)(=O)c3ccccc3)[C@@H]1C2 [Iea-b, (1R,2R,3S,5S)-2-phenylsulfonylamino-3-[(2Z)-6-(5-tetrazolyl)hex-2-enyl]-6,6-dimethylbicyclo[3.1.1]heptane] | 
15 | 20 | CC1(C)[C@H]2C[C@H](C/C=C\CCCc3nnn[nH]3)[C@@H](NS(=O)(=O)c3ccccc3Cl)[C@@H]1C2 [Iel-b, (1R,2R,3S,5S)-2-[(2-chlorophenyl)sulfonylamino]-3-[(2Z)-6-(5-tetrazolyl)hex-2-enyl]-6,6-dimethylbicyclo [3.1.1]heptane] | 
16 | 10 | CC1(C)[C@H]2C[C@H](C/C=C\CCCc3nnn[nH]3)[C@@H](NS(=O)(=O)c3ccc(-c4ccccc4)cc3)[C@@H]1C2 [Ieh-b, (1R,2R,3S,5S)-2-[(4-biphenylyl)sulfonylamino]-3-[(2Z)-6-(5-tetrazolyl)hex-2-enyl]-6,6-dimethylbicyclo[3.1.1]heptane] | 
17 | 20 | O=S(=O)(N[C@@H]1[C@@H](C/C=C\CCCc2nnn[nH]2)[C@H]2CC[C@@H]1O2)c1ccccc1 (relative stereo) [Iba-b, (1R*,2R*,3R*,4S*)-3-phenylsulfonylamino-2-[(2Z)-6-(5-tetrazolyl)hex-2-enyl]-7-oxabicyclo[2.2.1]heptane] | 
18 | 2 | Cc1ccc(S(=O)(=O)N[C@H]2[C@H]3CC[C@H](C3)[C@@H]2C/C=C\CCCc2nn[nH]n2)cc1 (relative stereo) [Iab-b, Sodium salt of (1R*,2S*,3S*,4S*)-2-[(2Z)-6-(5-tetrazolyl)hex-2-enyl]-3-(4-tolylsulfonylamino)bicyclo[2.2.1]-hepatane] | 
